One data set has as its system primary T cells. Description: Stem cell memory T cell phenotype by flow cytometry (CD45RA+CD62L+). It is filed as cell-based, human. Particulars: CRISPR knockout, day 15 post-activation. As for the experimental part: Primary T cells were activated as described (Example 3), transduced with a lentivirus encoding for either a shUSP16 or a non-targeting shRNA (Ctrl) and sorted for GFP on day 8. Cells were cultured in the presence of IL-2 and their phenotype was analyzed at day 20. Cells were stained for CD4-PerCP-5.5 or CD8-BV510, CD62L-Allophycocyanin, CD45RA-BV510 or PE-Cy7 (Biolegend). Naïve or stem cell memory T cells (TNa/SCM) were identified as Sytox^− GFP^+CD45RA^+CD62L^+. Number of TNa/SCM was calculated as (#CD4 or CD8 T cells*TNa/SCMpercentage)/100. Flow cytometry was performed on the MACQuant (Myltenyi Biotec) and the data analyzed with FlowJo (shCtrl vs shUSP CD4: 0.4978 vs 0.7915, p=0.0673 and CD8: 2.469 vs 4.984, p=0.00392, n=7). Downregulation of USP16 expression increases the number of CD4+CD45RA+CD62L+(FIG. 11A) and CD8+CD45RA+CD62L+(FIG. 11B) cells in culture by 1.7 (p=0.0205) and 1.9 (p=0.0097) times, respectively.
Primary T cells were activated as described (Example 3), transduced with a lentivirus encoding either a shUSP16 #1, shUSP16 #2 or a non-targeting shRNA (shCtrl) and cells were selected with puromycin at day 6. At day 15 cell were collected and analyzed by qPCR for the expression of LEF1 (FIG. 16A) and TCF7 (FIG. 16B), downstream regulators of the WNT pathway. At day 20, cells were stained for CD4-PE, CD8-BV510, CD62L-Allophycocyanin and CD45RA-APC-Cy7 (Biolegend). Stem cell memory T cells (Tscm) were identified as Sytox^− GFP^+CD45RA^+CD62L^+, central memory T cells (Tcm) as Sytox^−GFP^+CD45RA^−CD62L^+, effector memory T cells (Tem) as Sytox^−GFP^+CD45RA^−CD62L^−, and terminal effector T cell (Teff) as Sytox^−GFP^+CD45RA^+CD62L^− (FIG. 17A). Cells were gated on the CD8 population. The specific increase of Tscm was shown as phenotype ratio (FIG. 17B).
Primary T cells were activated as described (Example 3). At Day 6 post-activation, dynabeads were removed and T cells electroporated using the Neon Transfection System (ThermoFisher) with a 2.5:1 ratio sgRNA:Cas9. The experiment was performed following the protocol optimized for primary T cell by Synthego (CRISPR Editing Human Primary CD4+ T cells with RNPs using Neon Electroporation Protocol, 2018 version). The sgRNA used are the following: gUSP16 #1 5′-[…]-3′ (SEQ ID NO: 10) and gSynthego that comprises 3 different sgRNAs (gRNA-A: 5′-[…] 3′ (SEQ ID NO: 11); gRNA-B: 5′-[…]-3′ (SEQ ID NO: 12); gRNA-C: 5′-[…]-3′ (SEQ ID NO: 13)). Control T cells, identified as Mock, were electroporated but no Cas9:sgRNA mixture was added. […] At day 15 post-activation, cells were stained for CD4-PE, CD8-BV510, CD62L-Allophycocyanin and CD45RA-APC-Cy7 (Biolegend). Stem cell memory T cells (Tscm) were identified as Sytox^−GFP^+CD45RA^+CD62L^+ and graphed as ratio compared to mock cells (FIG. 22). The experiment was repeated using primary T cells obtained from buffy coats of 2 different healthy donors.
Primary T cells were activated as described (Example 3), transduced with a lentivirus encoding for either a CD19.CAR or a GD2.CAR co-expressing shUSP16 #1, shUSP16 #2 or a scrambled shRNA (Control). At day 15, GD2.CAR and CD19.CAR T cells were stained for EGFR-AF488 (R&D), CD3-PE, CD8-BV510, CD62L-Allophycocyanin and CD45RA-APC-Cy7 (Biolegend). Stem cell memory T cells (Tscm) were identified as FITC^+CD45RA^+CD62L^+, central memory T cells (Tcm) as FITC^+CD45RA^−CD62L^+, effector memory T cells (Tem) as FITC^+CD45RA^−CD62L^−, and terminal effector T cell (Teff) as FITC^+CD45RA^+CD62L^−. Cells were gated on the CD8 population. The specific increase of Tscm was shown as phenotype ratio (FIGS. 28A and 28B).

The subject of data set [1] is activated primary T cells. Briefly: Navitoclax-induced cell death (Sytox-negative cell count after 72 hours). The following applies: Younger T cells (day 12) compared with Older T cells (day 24). It is filed as cell-based, human. As for the experimental part:
Activated primary T cells were treated with the indicated amount of Navitoclax. Navitoclax is a senolytic drug selectively targeting senescent cells (Zhu et al., Aging Cell, 2016). After 72 hours, Sytox-negative T cells were counted by flow cytometry using MACSQuant (Myltenyi Biotec). […] In each experiment two different primary T cell cultures were tested for each condition (four replicas for each condition). DMSO is a negative control. Navitoclax (cat #HY-10087) was purchased from MCE. Primary T cells were activated as described (Example 3) and transduced with a lentivirus encoding either a shUSP16 or a non-targeting shRNA (shC). T cells were then treated with the indicated amount of Navitoclax. After 72 hours, Sytox-negative GFP+ cells were counted, and the numbers of dead cells were calculated as 100%−(#treated/#untreated) cells. Two different time points were tested (day 12, day 22) with two different primary T cell cultures (four replicas per each condition).

On to “gUSP16 #1: sgRNA 5′-UGGCGUCAGAUAGUGCUUCA-3′ (SEQ ID NO: 10), electroporated with Cas9 (listed as RNA, chemistry not given here)”, for which the “stem cell memory T cells, ratio compared to mock cells” value in the data set with primary T cells came to 1.178.
The same measure, in the same setting: in the case of “gSynthego: comprises 3 different sgRNAs (gRNA-A, gRNA-B, gRNA-C; SEQ ID NO: 11-13), electroporated with Cas9 (guide 1 GUGUGCAGACACAUUAGAAA; guide 2 UAUUGUCAGUCUUACAGUCU; guide 3 GUUUGGCUGUGUCUUAAAUG; listed as RNA, chemistry not given here)” it was 1.49.
Take `CC1(C)CCC(c2ccc(Cl)cc2)=C(CN2CCN(c3ccc(C(=O)NS(=O)(=O)c4ccc(N[C@H](CCN5CCOCC5)CSc5ccccc5)c(S(=O)(=O)C(F)(F)F)c4)cc3)CC2)C1` [Navitoclax]: in data set [1], the “sensitivity to Navitoclax-induced cell death” value is recorded as “less sensitive”.

(Values after patent US20210290680A1, “METHODS AND COMPOSITIONS FOR MODULATING CELLULAR AGING” (Dorian Therapeutics, Inc., priority 2019, published 2021).)
